In patent US20170071840A1, “POLYPHENOL/FLAVONOID COMPOSITIONS AND METHODS OF FORMULATING ORAL HYGIENIC PRODUCTS” (VIZURI HEALTH SCIENCES LLC, priority 2015, published 2017):

Experiments:
[1] = Heat solubilization in Kolliphor RH-40 / Polysorbate 80; format: physicochemical; details: curcumin as co-solubilizer
Source text: Heat Solubilization of 10% curcumin and 4% apigenin in Kolliphor RH-40 (formerly Cremophor)
Heat Solubilization of 10% Curcumin and 4% Apigenin in Polysorbate 80

[2] = Solubility in PS80 via the thermal processing method; format: physicochemical
Experimental: Apigenin/Polysorbate 80 (PS80) formulations can be made as follows: • Apigenin powder and PS80 are mixed in the ratio from about 5 to 10 wt. % of apigenin to 95 to 90 wt. % PS80.
All solubility tests were conducted with 20 ml of PS80 contained within 80 ml Pyrex glass beakers.

[3] = Saliva levels of apigenin in chronic 1% apigenin toothpaste users (Example 12); format: in vivo, human
Experimental: Two subjects who have used PeroxiCare® with apigenin at a 1% concentration on a chronic basis provided saliva samples at:
Saliva was collected at each time point in 50 ml Falcon tubes and immediately transferred to a freezer. All samples were transported to Tufts University within 24 hours of collection. Apigenin in saliva was quantified using high performance liquid chromatograph (HPLC) with electrochemical detection (ECD). Apigenin in 1 ml saliva was extracted using 3 ml acetonitrile. After 2 min of rigorous vortexing, the mixture was spun at 2,000 rpm for 15 min at 4° C. Supernatant was dried under N2 gas, reconstituted with mobile phase A, and analyzed for apigenin with HPLC-ECD. The limit of quantification (LOQ) for apigenin and EGCG in this assay is 15 and 25 ng/ml saliva, respectively.

Solubility in water = format: physicochemical; details: 20° C.
[4] = Solubilization in Listerine mouth rinse; format: physicochemical
Experimental: 100 Grams of the Listerine® Resveratrol Containing Mouth Rinse Formulation was Prepared as Follows: • 1. 98.4 grams of the Listerine® caramel colored mouth rinse was added to a 300 ml Pyrex glass beaker. The pH of the Listerine® caramel colored mouth rinse was initially determined via pH indicator strips to be decidedly acidic at approximately 4.5. • 2. 1.2 grams of Resveratrol powder was added to the solution of Step 1. • 3. About 0.2 grams of fine NaOH crystals were added to the mixture from Step 2 and thoroughly mixed. A uniformly caramel colored blend resulted with a measured pH of ˜10. […] The pH of the mixture from Step 3 was adjusted to a pH 6.5 by the addition of about 0.2 grams of citric acid crystals. A transparent solution resulted with a resveratrol concentration of 1.2 mg/ml.
• 1. 98.6 grams of the Listerine® caramel colored mouthrinse was added to a 300 ml Pyrex glass beaker. The pH of the Listerine® caramel colored mouthrinse was initially determined via pH indicator strips to be decidedly acidic at approximately 4.5. • 2. 1.2 grams of Luteolin powder was added to the solution of Step 1. • 3. About 0.2 grams of fine NaOH crystals were added to the mixture from Step 2 and thoroughly mixed. A uniformly caramel colored blend resulted with a measured pH of ˜10. […] The pH of the mixture from Step 2 was adjusted to a pH 8 by the addition of about 0.2 grams of citric acid crystals. […]

[5] = pH for stable aqueous microemulsion; format: physicochemical; details: nonionic surfactants Polysorbate 80 and Cremophor/Kolliphor RH-40
Source text: In one embodiment, a flavonoid/polyphenol microemulsion can be made as follows: • The mixing of a flavonoid/polyphenol with an alkali metal component (e.g., alkali metal hydroxide(s) and/or alkaline metal salt(s)) to form an alkali metal flavonoid/polyphenol salt within an aqueous solution. • Adding a surfactant in the ratio from about 5 to 20 wt. % of the flavonoid/polyphenol to 95 to 80 wt. % of a surfactant; preferable a nonionic surfactant. • This mixture is thoroughly stirred to form a uniform clear solution. • Adjusting (e.g., acidifying) the alkali metal flavonoid/polyphenol salt with an agent (e.g., an acidic agent such as acetic acid and/or hydrochloric acid) to a pH level required to form a clear and stable microemulsion.
Stable microemulsions with apigenin and the nonionic surfactants, Polysorbate 80 and Cremophor/Kolliphor RH-40, were achieved provided a pH level of 8.0 to 8.5 was maintained. For luteolin, it as determined that a pH of 7 was required to maintain a stable aqueous microemulsion; and for resveratrol, a pH of >4.5 to 7.5.

O=c1cc(-c2ccc(O)cc2)oc2cc(O)cc(O)c12 [Apigenin, 4′,5,7,-trihydroxyflavone]
apigenin solubilized in PS 80 [1]: more than 5%
apigenin solubilized in RH-40 [1]: more than 5%
stable apigenin concentrate in PS80 ([2]; 5.0 wt. % apigenin in PS80, heated, cooled to ambient): 50 mg/mL
persistence of apigenin levels in saliva post-brushing [3]: at least 8 hours

O.Oc1cc(O)c2c(c1)O[C@H](c1ccc(O)c(O)c1)[C@@H](O)C2 [Catechin]
PS80 Solubility ([2]; 20° C., thermal processing, not the maximum solubility levels): 50 mg/mL
Water Solubility (Solubility in water): ~5 mg/mL

O=c1cc(-c2ccc(O)c(O)c2)oc2cc(O)cc(O)c12 [luteolin, 3′,4′,5,7-tetrahydroxyflavone]
concentration in transparent solution ([4]; Listerine mouthrinse, pH 8): 1500 µg/mL
pH level for stable microemulsion [5]: 7

Oc1ccc(C=Cc2cc(O)cc(O)c2)cc1 [resveratrol]
concentration in transparent solution ([4]; Listerine mouth rinse, pH 6.5): 1200 µg/mL
